Reference: patent publication US10724099B2, “Multiplex methods to assay mixed cell populations simultaneously” (The Broad Institute, Inc., priority 2012, dated 2020)

Tests used:
HCT-116 cells [1] = assay: DNA content by propidium iodide flow cytometry; format: cell-based; settings: 10 μM, 24 hours or 48 hours
Experimental: In addition, HCT-116 cells were treated with 10 μM of DMSO, or the Aurora Kinase Inhibitors barasertib, GSK1070916, MLN8054, BRD-7880, or tozasertib. 24 hours or 48 hours following treatment, cells were stained with propidium iodide and DNA content per cell was assessed using a Becton Dickinson LSR II flow cytometer.

HCT-116 cells [2] = assay: Western blot phosphoserine 10-histone H3; format: cell-based; settings: 10 μM
Experimental: Finally, HCT-116 cells were treated with 10 μM of DMSO, barasertib, GSK1070916, MLN8054, BRD-7880, or tozasertib. Cells lysates were probed on Western blot using antibodies (diluted 1:1000) to histone H3 (Abcam cat. no. 24834), phosphoserine 10-histone H3 (Cell Signaling Technology cat no. 3377SS), aurora kinase B (Millipore cat. no. 04-1036), or beta-actin (Santa Cruz Biotechnology cat. no. sc-47778) and detected using a LI-COR Odyssey analyzer.

[3] = system: 100 human cancer cell lines; assay: PRISM, 100 barcoded cancer cell lines in mixture; format: cell-based; settings: for reduction in cell viability in BRAF V600E mutant lines compared to BRAF wild-type lines: mixture, day 5
Experimental: PRISM detection was performed as follows. Genomic DNA from cell lysates was amplified by PCR using primers Biotin pLENTR4 (5′-Biotin-[sequence]-3′; SEQ ID NO:3) and pLENTF1 (5′-[sequence]-[sequence]-3′; SEQ ID NO:4). […] PCR without genomic DNA was hybridized with beads to serve as background control; signal for each bead was subtracted from each sample measurement. DMSO-treated cell mixtures were used as reference control for scaling of each cell line signal at the conclusion of each experiment (viability=100 for each cell line).
To investigate cancer vulnerabilities that are common in multiple cancer types and to examine the extent to which assaying cells in mixture may be complicated by cell-cell interactions, a panel of 100 barcoded cell lines was created comprising 18 different cancer types, and these were challenged in mixture with each of 43 anticancer compounds (including both targeted and general cytotoxic agents) in 8-point dose response. Each compound was represented by 3,200 functional measurements (100 cell lines×8 doses×4 replicates). The assays were performed as follows. Frozen mixtures of barcoded cell lines were thawed (day −2) and replated (day −1) into 384-well microtiter plates. On day 0, compounds suspended in DMSO were pinned into cultures to achieve final concentrations of 0.0012, 0.0049, 0.019, 0.078, 0.3125, 1.25, 5, or 20 μg ml-1. On day 5, cells were washed with phosphate-buffered saline and lysed for 60 minutes at 60° C. in 20 mM Tris-HCl (pH 8.4), 50 mM KCl, 0.45% IGEPAL CA-630 (Sigma cat. 18896), 0.45% Tween-20 (Sigma cat. P9416), and 10% proteinase K (Qiagen cat. 19133). Proteinase K was inactivated by a 15-minute incubation at 95° C.

[4] = system: 100 human cancer cell lines; assay: CTG (CellTiterGlo ATP), 100 cell lines grown individually; format: cell-based; settings: for reduction in cell viability in BRAF V600E mutant lines compared to BRAF wild-type lines: CTG (ATP), individual lines, day 3
From the text: (§1) To quantitatively compare the 100-cell line PRISM performance to traditional methods, PRISM was compared to the activity of 23 compounds across the same 100 cell lines grown individually, as recently reported (using either ATP content measurements using the CellTiterGlo (CTG), or direct enumeration of cell nuclei using an optical fluorescent imaging method (PerkinElmer Opera system (hereafter, OPTICAL)) and thus served as a gold standard against which PRISM could be compared (Barretina et al., Nature 483, 603 (Mar. 29, 2012)). The same parental cell lines were used in all three methods; in the PRISM method, a barcoded “daughter” line was generated from the common parental cell line. Compounds used in assays were replica-plated from the same source. The cell lines grown individually were assayed at day 3 following compound treatment, whereas the 100-cell line PRISM mixture was analyzed at day 5.
(§2) To compare the three methods for measuring cell viability, the AUC (Area Under the Curve, measured from the viability vs. logarithm of drug concentration curve) was calculated for each combination of compound and cell line and for each viability measurement method. The CTG and OPTICAL methods were generally correlated with Pearson R=0.801. CTG and PRISM correlated with R=0.663, and OPTICAL and PRISM correlated with R=0.720. […] To investigate whether particular cell lines or specific compounds were disproportionately responsible for divergent predictive results between PRISM and the other methods, we examined the ratio between […] or […]. […] In these rare cases, either the different assay conditions (5-day assay with PRISM, 3-day assay with OPTICAL and CTG) or the assay of cells in mixture might explain the discrepancy. Overall, however, PRISM appears to perform comparably to these other methods in global determinations of sensitivity to compounds in these 100 cell lines.

[5] = system: 100 human cancer cell lines; assay: OPTICAL (Opera enumeration of nuclei), 100 cell lines grown individually; format: cell-based; settings: for reduction in cell viability in BRAF V600E mutant lines compared to BRAF wild-type lines: OPTICAL (Nuclei), individual lines, day 3
From the text: as §1, §2

308 kinases = assay: Kinase activity profiling, Millipore KinaseProfiler; format: biochemical
[6] = system: 25 barcoded lung adenocarcinoma cell lines; assay: PRISM, mixture of 25 barcoded lung adenocarcinoma cell lines; format: cell-based, human; settings: for viability relative to DMSO-treated control (relative inhibition profile): cell lines in mixture, 0-10 μM (puromycin 0-10 μg/ml), day 5
Experimental: PRISM detection was performed as follows. Genomic DNA from cell lysates was amplified by PCR using primers Biotin pLENTR4 (5′-Biotin-[…]-3′; SEQ ID NO:3) and pLENTF1 (5′-[…]-[…]-3′; SEQ ID NO:4). PCR product was hybridized to Luminex beads with covalently attached antisense barcodes, and streptavidin-phycoerythrin addition, washing, and detection on Luminex FlexMap machines was performed as previously described (Peck et al., Genome Biol 7, R61 (2006)). PCR without genomic DNA was hybridized with beads to serve as background control; signal for each bead was subtracted from each sample measurement. DMSO-treated cell mixtures were used as reference control for scaling of each cell line signal at the conclusion of each experiment (viability=100 for each cell line).
These lines were barcoded as described above, and equal numbers of cells of each cell lines were mixed together. Cell mixtures were plated in 384-well plates on day −1. On day 0, mixtures were challenged with compounds or vehicle, and on day 5 genomic DNA was harvested and barcodes quantitated. Barcode signal background was determined using beads hybridizing to PCR reactions lacking genomic DNA templates and was subtracted from all measurements. To account for different doubling times of cell lines and different baseline signals for each cell line, the barcode signal for each cell line was scaled to the signal of the vehicle-treated control at the end of the experiment (PRISM schema shown in FIG. 1A), so that the relative growth inhibition of each cell line was assessed.

[7] = system: 24 barcoded human lung adenocarcinoma cell lines; assay: In vivo PRISM, xenograft of 24 barcoded lung adenocarcinoma cell lines in NSG mice; settings: 50 mg/kg once daily by gavage for 16 days, vs vehicle
From the text: The tumors were than resected, and the abundance of each cell line measured by PRISM.

Structure (SMILES) | DNA content per cell (HCT-116 cells [1]) | phosphorylation of serine 10 on histone H3 (HCT-116 cells [2]) | reduction in cell viability in BRAF V600E mutant lines compared to BRAF wild-type lines [3] | reduction in cell viability in BRAF V600E mutant lines compared to BRAF wild-type lines [4] | reduction in cell viability in BRAF V600E mutant lines compared to BRAF wild-type lines [5] | viability relative to DMSO-treated control (relative inhibition profile) [6] | further results
O=C(O)c1ccc(Nc2ncc3c(n2)-c2ccc(Cl)cc2C(c2c(F)cccc2F)=NC3)cc1 [MLN8054] | increased DNA content | decrease phosphorylation of serine 10 on histone H3 | – | – | – | – | –
CNC(=O)c1cc(Oc2ccc(NC(=O)Nc3ccc(Cl)c(C(F)(F)F)c3)cc2)ccn1 [sorafenib] | – | – | did not demonstrate significant reductions | did not demonstrate significant reductions | did not demonstrate significant reductions | – | –
Cc1cc(Nc2cc(N3CCN(C)CC3)nc(Sc3ccc(NC(=O)C4CC4)cc3)n2)[nH]n1 [tozasertib] | increased DNA content | decrease phosphorylation of serine 10 on histone H3 | – | – | – | – | significant inhibition (defined as activity<25% control) across 308 kinases (308 kinases): inhibited aurora kinases A, B, and C, in addition to several other kinases
CCn1cc(-c2ccnc3[nH]c(-c4cccc(CN(C)C)c4)cc23)c(-c2ccc(NC(=O)N(C)C)cc2)n1 [GSK1070916] | increased DNA content | decrease phosphorylation of serine 10 on histone H3 | – | – | – | – | –
Cn1c(Nc2ccc(C(F)(F)F)cc2)nc2cc(Oc3ccnc(-c4ncc(C(F)(F)F)[nH]4)c3)ccc21 [RAF-265] | – | – | a similar reduction was seen only with PRISM | – | – | – | –
C#Cc1cccc(Nc2ncnc3cc(OCCOC)c(OCCOC)cc23)c1 [erlotinib] | – | – | – | – | – | selective and dose-dependent decrease of four EGFR-mutant cell lines | sensitivity of HCC2935 among the 4 EGFR-mutant lines in vitro ([6]; HCC2935, FIG. 1b): least sensitive; sensitivity of EGFR-mutant lines compared to EGFR wild-type lines ([3]; did not reach statistical significance): trend towards increased sensitivity; sensitivity of EGFR-mutant lines compared to EGFR wild-type lines ([4]; CTG, did not reach statistical significance): trend towards increased sensitivity; sensitivity of EGFR-mutant lines compared to EGFR wild-type lines ([5]; OPTICAL, did not reach statistical significance): trend towards increased sensitivity; representation of the detectable 19 wt-EGFR lines [7]: mostly unchanged or increased in representation
COc1ccc(C[C@H](N)C(=O)N[C@H]2[C@@H](O)[C@H](n3cnc4c(N(C)C)ncnc43)O[C@@H]2CO)cc1 [puromycin] | – | – | – | – | – | uniform cell death across the cell line mixture | –
CCCS(=O)(=O)Nc1ccc(F)c(C(=O)c2c[nH]c3ncc(Cl)cc23)c1F [PLX4720] | – | – | significant (two-tailed t-test, p<0.05) reductions in cell viability | significant (two-tailed t-test, p<0.05) reductions in cell viability | significant (two-tailed t-test, p<0.05) reductions in cell viability | – | –
Cn1cnc2c(F)c(Nc3ccc(Br)cc3Cl)c(C(=O)NOCCO)cc21 [AZD6244] | – | – | only a trend towards this reduction | significant reduction | only a trend towards this reduction | – | –
COc1cc(N2CCC(N3CCN(C)CC3)CC2)ccc1Nc1ncc(Cl)c(Nc2ccccc2S(=O)(=O)C(C)C)n1 [NVP-TAE-684] | – | – | – | – | – | selective killing was observed of H3122, but not H2228 | –
